Among the data in patent EP0083204A2, “2-Aminophenol derivatives and process for their preparation” (ONO PHARMACEUTICAL CO., LTD., priority 1981, dated 1983) are IC50 and mortality values, retold here.

Series [1] addresses T1, 5-lipoxygenase (Cavia porcellus, UniProt A0A286X958).
T1 construct: The supernate was used as an enzyme throughout this work; from tissue; host or cells: 105,000 x g supernatant of sonicated, casein-elicited guinea pig polymorphonuclear leukocytes
T1 sequence (A0A286X958 1-674): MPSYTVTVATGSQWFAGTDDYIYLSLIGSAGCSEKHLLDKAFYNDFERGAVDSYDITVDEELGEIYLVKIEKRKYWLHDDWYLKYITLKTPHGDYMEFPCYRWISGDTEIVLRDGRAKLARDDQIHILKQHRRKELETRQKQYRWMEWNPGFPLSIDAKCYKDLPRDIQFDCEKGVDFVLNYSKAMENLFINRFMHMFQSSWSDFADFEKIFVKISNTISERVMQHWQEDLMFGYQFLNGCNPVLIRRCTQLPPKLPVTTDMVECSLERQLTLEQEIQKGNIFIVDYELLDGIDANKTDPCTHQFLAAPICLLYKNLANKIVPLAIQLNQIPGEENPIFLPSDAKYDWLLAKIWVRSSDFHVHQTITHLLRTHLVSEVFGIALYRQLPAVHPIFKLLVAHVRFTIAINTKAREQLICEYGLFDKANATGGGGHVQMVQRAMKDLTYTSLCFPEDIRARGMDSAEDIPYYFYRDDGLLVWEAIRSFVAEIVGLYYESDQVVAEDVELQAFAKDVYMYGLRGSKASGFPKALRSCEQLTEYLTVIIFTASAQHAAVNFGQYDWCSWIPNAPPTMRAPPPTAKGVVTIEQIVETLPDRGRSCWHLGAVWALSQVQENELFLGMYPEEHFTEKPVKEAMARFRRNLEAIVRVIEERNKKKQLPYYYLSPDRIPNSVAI
Kind of series: assay system evaluating only the inhibitory activity on 5-lipoxygenase (105,000 x g supernate of sonicated polymorphonuclear leukocytes). The class given is biochemical. To be noted: supernate of sonicated guinea pig polymorphonuclear leukocytes, 30°C, 5 minutes, 1 mM calcium chloride; production of 5-HETE, 5,12-diHETE and leukotriene B; read-out: concentrations required to produce 50% inhibitions on 5-lipoxygenase. The protocol:
The experiments for evaluating only the inhibitory activity on 5-lipoxygenase were carried out as follows: Guinea pig was treated by casein and harvested polymorphonuclear leukocytes from cavity were sonicated, followed by the centrifugation at 105,000 x g. The supernate was used as an enzyme throughout this work. The supernate (100 - 500 ug of protein) was incubated for 5 minutes at 30°C with [^14C] arachidonic acid and 1 mM calcium chloride in the presence or in the absence of test compound. The reaction was terminated by the addition of ether. Ether extract was separated by thin layer chromatography using silica gel plates to observe production of 5-HETE, 5,12-diHETE and leukotriene B. In this assay system, the concentrations for 50% inhibitions on 5- lipoxygenase were evaluated by using the concentrations of compounds of the present invention required 50% inhibitions on the production of 5-HETE, 5,12-diHETE and leukotrien B.

In a further series the test system is mice. Kind of series: acute toxicity by intravenous administration. The format is in vivo, mouse. To be noted: intravenously administered to tail vein in ten mice at the dose of 30 mg/kg. On the procedure: On the other hand, all extent of the compounds of the present invention were confirmed that their acute toxicities were more than 30 mg/kg by intravenous administration. Therefore, 2-aminophenol derivatives of the present invention may be considered to be sufficiently safe and suitable for medical use.

For another series, the system named is cyclooxygenase. Kind of series: standard assay system using polymorphonuclear leukocytes (production of HHT or TXB2 from [14C] arachidonic acid). The format is cell-based. As to conditions: intact polymorphonuclear leukocytes from guinea pig, 4 x 10^7 cells, 37°C, 5 minutes, read-out: concentrations for 50% inhibitions on cyclooxygenase. On the procedure:
(§1) For example, in standard assay system using polymorphonuclear leukocytes from guinea pig (details of experiments were described hereafter), (a) the concentrations of 2-amino-4-(4-methylphenylthio)phenol hydrochloride for 50% inhibitions on 5-lipoxygenase and on cyclooxygenase were 0.2 µM and 0.3 µM, respectively, (b) the concentrations of 2-amino-4-phenylthiophenol hydrochloride for 50% inhibitions on 5- lipoxygenase and on cyclooxygenase were 0.1 µM and 0.3 uM, respectively and (c) the concentrations of 2-amino-4-(4-chlorophenylthio)phenol hydrochloride for 50% inhibitions on 5-lipoxygenase and on cyclooxygenase were 0.5 µM and 0.3 µM, respectively. Therefore, it is comfirmed that these compounds (a), (b) and (c) inhibit both 5-lipoxygenase and cyclooxygenase at the same time at very low concentrations.
(§2) The experiments for screening using polymorphonuclear leukocytes were carried out as follows: The reaction mixture (0.1 ml) containing 5 µmole of potassium phosphate at pH 7.4, 0.1 µmole of calcium chloride, polymorphonuclear leukocytes prepared from guinea pigs (4 x 10^7 cells) and test compound, was preincubated for 5 minutes at 37°C. The reaction was started by the addition of [^14C] arachidonic acid ([…] dpm, 1.8 nmole), followed by the incubation at 37°C for 5 minutes. The reaction was terminated by the addition of 0.3 ml of a mixture of ether/ methanol/lM citric acid (30/4/1). The organic phase (20 µl) was applied to silica gel plate. Thin layer chromatography was performed to separate each product with solvent system of ether/petroleum ether/acetic acid (85/15/0.1).
(§3) Activity of 5-lipoxygenase and cyclooxygenase were calculated from the measurements of the production of 5-HETE, and 12L-hydroxy-5,8,10-[…] acid (i.e. HHT) or thromboxane B2 (i.e. TXB2), respectively [it has been known that HHT and TXB2 are the last products of the system concerning cyclooxygenase in the arachidonate cascade]. […]

Series [2] deals with T1, 5-lipoxygenase. Kind of series: standard assay system using polymorphonuclear leukocytes (production of 5-HETE from [14C] arachidonic acid). As to conditions: intact polymorphonuclear leukocytes from guinea pig, 4 x 10^7 cells, 37°C, 5 minutes, read-out: concentrations for 50% inhibitions on 5-lipoxygenase. The format is cell-based. The protocol:
as §1, §2, §3

SMILES strings stand for the structures. Where a name gives a salt, the structure may show the parent alone.

With `Cc1cc(C)c(Sc2ccc(O)c(N)c2)c(C)c1` [2-Amino-4-(2,4,6-trimethylphenylthio)phenol hydrochloride], on 5-lipoxygenase [1], the IC50 amounted to 480 nM.
As for `Cl.Nc1cc(-c2nc3ccccc3s2)ccc1O` [2-Amino-4-(2-benzothiazolyl)phenol hydrochloride], the IC50 on 5-lipoxygenase [1] is 230 nM. Moreover, the mortality result with mice was “no mouse was dead”.
Take `Nc1cc(Sc2ccc(O)c(N)c2)ccc1O` [2-Amino-4-(3-amino-4-hydroxyphenylthio)phenol]: at 5-lipoxygenase [1], the IC50 stood at 1500 nM.
For `Nc1cc(Sc2ccc(Cl)cc2)ccc1O` [2-Amino-4-(4-chlorophenylthio)phenol hydrochloride], the IC50 on 5-lipoxygenase [1] worked out at 300 nM; in the series with cyclooxygenase, 300 nM; on 5-lipoxygenase [2], 500 nM.
For the compound `Cc1ccc(Sc2ccc(O)c(N)c2)cc1.Cl` [2-Amino-4-(4-methylphenylthio)phenol hydrochloride], the IC50 on 5-lipoxygenase [1] amounted to 200 nM; in the series with cyclooxygenase, 300 nM; at 5-lipoxygenase [2], 200 nM. Moreover, the mortality result in the series on mice is listed as “no mouse was dead”.
As to `CC(C)(C)c1ccc(Sc2ccc(O)c(N)c2)cc1` [2-Amino-4-(4-tert-butylphenylthio)phenol hydrochloride], on 5-lipoxygenase [1], the IC50 worked out at 320 nM.
Same read-out and setting: in the case of `Nc1cc(Sc2ccc(O)cc2)ccc1O` [2-amino-4-(4-hydroxyphenylthio)phenol, 2-Amino-4-(4-hydroxyphenylthio)phenol] it was 460 nM; in that of `Nc1cc([S+]([O-])c2ccccc2)ccc1O` (stereo not drawn) [2-amino-4-benzenesulfinylphenol, 2-Amino-4-benzenesulfinylphenol], 11000 nM.
`Nc1cc(C#Cc2ccccc2)ccc1O` [2-amino-4-phenylethynylphenol, 2-Amino-4-phenylethynylphenol]: the IC50 on 5-lipoxygenase [1] came to 690 nM. Also, in the series with mice, the mortality result was “no mouse was dead”.
On to `Nc1cc(Sc2ccccc2)ccc1O` [2-amino-4-phenylthiophenol hydrochloride, 2-Amino-4-phenylthiophenol hydrochloride], for which the IC50 on 5-lipoxygenase [1] was found to be 310 nM; in the series with cyclooxygenase it was 300 nM; on 5-lipoxygenase [2], 100 nM. Moreover, the mortality entry in the series on mice is given as “no mouse was dead”.
In the case of `Nc1cc(NC(=O)c2ccccc2)ccc1O` [N-(3-Amino-4-hydroxyphenyl)benzamide hydrochloride], the IC50 on 5-lipoxygenase [1] came to 18000 nM.
